From US10695406B2, “Modulation of cellular stress using a B-cell oxidative and/or endoplasmic reticulum stress inhibitor and a targeting agent” (THE UNIVERSITY OF QUEENSLAND, priority 2014, dated 2020)

Tests used:
MIN6N8 murine β-cells = assay: ER stress (ERAI reporter of Xbp1-splicing / Xbp1 splicing) in MIN6N8 β-cells; type: cell-based; set-up: % Inhibition of ER Stress (Xbp1 splicing): concentration or dose not given beside the values; conditions: for induction of ER stress (ERAI reporter of Xbp1-splicing): 50 ng/mL cytokines, 24 hour
Method: MIN6N8 cells are maintained in line with standard protocols. Cells are transfected with either the ERAI reporter plasmid (F-XBP1ΔDBD-Venus), or the ATF6-GFP plasmid (ADGENE), using LIPFECTAMINE 2000 according to the manufacturer's instructions.
On induction of ER stress, splicing of […] mRNA by IRE1a results in the translation of Venus, but not an active form of XBP1. Fluorescence was measured (excitation: 485 nm; emission: 520 nm) using the POLARstar Omega plate reader and cells were treated 48 h after transfection. The results are normalized with Gapdh expression as fold of vehicle-treated control (Con) cells.
Activation of ATF6 was assessed as follows: the area in pixels per square millimeter co-stained ATF6 and DAPI (blue and green), and total ATF6 staining (green) was determined in 5 fields of view for each section (n=6 for each condition) using IMAGEJ software version 1.45s. Data are presented as the percentage of ATF6 and DAPI co-fluorescence to the total ATF6 fluorescence. Phosphorylation of Ser-51 of eiF2 α was determined by an AlphaScreen assay as per the manufacturer's instructions (PERKIN-ELMER). The Griess reagent method was performed according to the manufacturer's instructions (MOLECULAR PROBES) to assess the intracellular levels of nitric oxide. 5-(and -6-)-carboxy-2,7-dichlorofluorescein diacetate (DCFDA) assay was used to determine the intracellular levels of H2O2 as previously described (Sakon et al., 2003). Cells were treated with glucose or recombinant cytokines at the concentrations indicated in the figure legends, or with 5 μM thapsigargin (SIGMA-ALDRICH) or 10 μg/mL tunicamycin (SIGMA-ALDRICH) or 0.1-0.5 mM Palmitate (SIGMA-ALDRICH) for the times indicated in the legends. ROS was […] using the dihydroethidium (DHE) fluorescent cell-permeable probe (SIGMA-ALDRICH). MIN6N8 cells plated at 2×10^6/mL were incubated with 3 μM DHE and subsequently treated with DMSO (control), 50 ng/mL IL-23 for 30 minutes±[…] IL-22 at the same time or 30 minutes prior to IL-23.
To inhibit transcription factors the following specific inhibitors (and concentrations) were used:
MIN6N8 cells were exposed to a panel of cytokines to determine the effect of each cytokine on ER stress. ER stress was measured using the above-described method. Specifically, the cells were exposed to either a 24 hour treatment of any one of […] glucose (hi glucose), 10 μM H2O2, 0.5 mM palmitic acid or 50 ng/mL cytokines; or a 6 hour treatment with 10 μg/mL tunicamycin or 5 μM thapsigargin.
Experiments to assess ER and/or oxidative stress, and methods of qRT-PCT and/or quantifying gene expression were performed as described for Example 1. Xbp1 splicing is assessed by qRT-PCR, with normalization versus Gapdh, and expression presented as fold of vehicle-treated control cells.

Murine MIN6N8 cells = assay: ERAI-sXBP1 reporter ER stress in MIN6N8 cells with 0.5 mM palmitate; type: cell-based; conditions: 24 hours
Method: Cell culture: Murine MIN6N8 cells were tested negative for mycoplasma. Cells were routinely cultured in phenol-red free DMEM (Life Technologies) containing 25 mM glucose (3.4 g/L sodium bicarbonate, 50 U/mL penicillin and streptomycin, 71.5 μM β-mercaptoethanol and 10% heat inactivated fetal bovine serum) and transferred to DMEM as above with 5.5 mM glucose 48 h prior to experimentation. Human LS174T cells were cultured in DMEM containing 10% heat-inactivated fetal bovine serum, 50 U mL^−1 penicillin and streptomycin.
ER Stress Measurement: MIN6N8 cells were transfected with the ERAI reporter plasmid (F-XBP1ΔDBD-venus, using Lipofectamine 2000 according to the manufacturer's instructions. For ERAI there was negligible fluorescence in the absence of ER stressors, but upon induction of ER stress, splicing of XBP1 mRNA by IRE1a results in the translation of Venus but not an active form of XBP1. Fluorescence was measured (excitation: 485 nm; emission: 520 nm) using a POLARstar Omega plate reader and cells were treated 48 h after transfection. […] After 24 h, ERAI-sXBP1 GFP reporter fluorescence was measured.

STAT3 phosphorylation = assay: pStat3 staining in pancreatic islets vs liver, intestine and skin; type: in vivo, C57BL/6 mice; conditions: 30 min
Method: Targeting to IL-22 to pancreas: Non-obese male C57BL/6 at 6-8 weeks of age. Each IL-22-GLP-1R ligand fusion protein or hIL-22 was administered i.p. at 256 ng/g of IL-22 and the molar equivalents for the individual fusion proteins (n=3 per regimen). IL-22-ScaB1 was administered at […]. Control mice received a PBS control i.p. injection only.
To assess in vivo activation of the IL-22 receptor signaling pathway, after 30 min the mice were sacrificed and the following tissues were snap frozen and sections were prepared for each mouse: pancreas, skin (ear, tail), colon (rolled), and liver. Sections were stained by immunofluorescence for phosphorylated STAT3 using the Phospho-Stat3 (Tyr705) (D3A7) antibody.

Q: What does the source list for `N[C@@H](CCC(=O)N[C@@H](CS)C(=O)NCC(=O)O)C(=O)O` [GSH, reduced glutathione]?
A: % Inhibition of ER Stress (Xbp1 splicing) (MIN6N8 murine β-cells; ER stress induced by IFNγ): 15%; % Inhibition of ER Stress (Xbp1 splicing) (MIN6N8 murine β-cells; ER stress induced by IL-1β): 16%; % Inhibition of ER Stress (Xbp1 splicing) (MIN6N8 murine β-cells; ER stress induced by IL-17A): 0%; % Inhibition of ER Stress (Xbp1 splicing) (MIN6N8 murine β-cells; ER stress induced by IL-23): 87%; % Inhibition of ER Stress (Xbp1 splicing) (MIN6N8 murine β-cells; ER stress induced by IL-24): 6%; % Inhibition of ER Stress (Xbp1 splicing) (MIN6N8 murine β-cells; ER stress induced by IL-33): 13%; % Inhibition of ER Stress (Xbp1 splicing) (MIN6N8 murine β-cells; ER stress induced by MIP-2α): 7%

Q: What does the source list for `CNC(=N)NCCC[C@H](N)C(=O)O` [L-NMMA, N^G-Methyl-L-arginine]?
A: % Inhibition of ER Stress (Xbp1 splicing) (MIN6N8 murine β-cells; ER stress induced by IFNγ): 87%; % Inhibition of ER Stress (Xbp1 splicing) (MIN6N8 murine β-cells; ER stress induced by IL-1β): 93%; % Inhibition of ER Stress (Xbp1 splicing) (MIN6N8 murine β-cells; ER stress induced by IL-17A): 83%; % Inhibition of ER Stress (Xbp1 splicing) (MIN6N8 murine β-cells; ER stress induced by IL-23): 78%; % Inhibition of ER Stress (Xbp1 splicing) (MIN6N8 murine β-cells; ER stress induced by IL-24): 92%; % Inhibition of ER Stress (Xbp1 splicing) (MIN6N8 murine β-cells; ER stress induced by IL-33): 90%; % Inhibition of ER Stress (Xbp1 splicing) (MIN6N8 murine β-cells; ER stress induced by MIP-2α): 95%

Q: Which “induction of ER stress (ERAI reporter of Xbp1-splicing)” value (from here on “induction of ER stress”) (MIN6N8 murine β-cells) does the source give for IL-1β: ER stress-inducing cytokine here?
A: lower stress response

Q: IL-17A: ER stress-inducing cytokine was tested. Which “induction of ER stress” value (MIN6N8 murine β-cells) did it give?
A: lower stress response

Q: MIP-2α: ER stress-inducing chemokine was tested. Which “induction of ER stress” value (MIN6N8 murine β-cells) did it give?
A: lower stress response

Q: Which “% Inhibition of ER Stress (Xbp1 splicing)” value (“% Inhibition of ER Stress” for short) (MIN6N8 murine β-cells; ER stress induced by IFNγ) does the source give for superoxide dismutase [SOD1] here?
A: 74%

Q: And the “% Inhibition of ER Stress” value (MIN6N8 murine β-cells; ER stress induced by IL-1β)?
A: 96%

Q: And the “% Inhibition of ER Stress” value (MIN6N8 murine β-cells; ER stress induced by IL-17A)?
A: 65%

Q: What about the “% Inhibition of ER Stress” value (MIN6N8 murine β-cells; ER stress induced by IL-23) of the same molecule?
A: 95%

Q: And the “% Inhibition of ER Stress” value (MIN6N8 murine β-cells; ER stress induced by IL-24)?
A: 59%

Q: And the “% Inhibition of ER Stress” value (MIN6N8 murine β-cells; ER stress induced by IL-33)?
A: 74%

Q: And the “% Inhibition of ER Stress” value (MIN6N8 murine β-cells; ER stress induced by MIP-2α)?
A: 88%

B1: IL-22-ScaB1: IL-22-single chain antibody construct targeting a β-cell antigen; scFv-cytokine fusion protein with His- and myc-tag (protein)
chain: HHHHHHEVQLLESGGGLVQPGGSLRLSCAASGFTFSSYAMSWVRQAPGKGLEWVSSITAEGTHTWYADSVKGRFTISRDNSKNTLYLQMNSLRAEDTAVYYCAKTSYRFDYWGQGTLVTVSSGGGGSGGGGSGGGGSDIQMTQSPSSLSASVGDRVTITCRASQSISSYLNWYQQKPGKAPKLLIYKASRLQSGVPSRFSGSGSGTDFTLTISSLQPEDFATYYCQQKWDPPRTFGQGTKVEIKRSGGGGSAPISSHCRLDKSNFQQPYITNRTFMLAKEASLADNNTDVRLIGEKLFHGVSMSERCYLMKQVLNFTLEEVLFPQSDRFQPYMQEVVPFLARLSNRLSTCHIEGDDLHIQRNVQKLKDTVKKLGESGEIKAIGELDLLFMSLRNACIEQKLISEEDLN
modifications: His-ScaB1 scFv-IL22 human-myc
notes: IL-22-single chain antibody construct targeting a β-cell antigen; scFv-cytokine fusion protein with His- and myc-tag
Q: How did the “ER stress caused by the protein alone” value (Murine MIN6N8 cells; 15.4 nM, no palmitate) turn out when B1 was run?
A: did not cause ER stress

Q: What about the “potency compared to the native human IL-22 in reducing ER stress” value (Murine MIN6N8 cells; 0.5 mM palmitate) of the same molecule?
A: < 50%

Q: And the “protection from palmitate-induced ER stress” value (Murine MIN6N8 cells; co-treated with 0.5 mM palmitate, increasing concentrations)?
A: reduced ER stress induced by palmitate

Q: What about the “pStat3 ratio pancreatic islets vs liver, skin or intestine relative to human IL-22” value (STAT3 phosphorylation; 0.96 nmoles/g) of the same molecule?
A: not greater than for native human IL-22

Q: What about the “pStat3 ratio pancreatic islets vs intestine, fold change relative to human IL-22” value (STAT3 phosphorylation; 15.4 nmoles/g) of the same molecule?
A: 420 fold

Q: And the “pStat3 ratio pancreatic islets vs liver, fold change relative to human IL-22” value (STAT3 phosphorylation; 15.4 nmoles/g)?
A: 120 fold

Q: What about the “pStat3 ratio pancreatic islets vs skin, fold change relative to human IL-22” value (STAT3 phosphorylation; 15.4 nmoles/g) of the same molecule?
A: 110 fold

B2: IL-33: ER stress-inducing cytokine (protein, UniProt O95760 1-270, looked up)
Interleukin-33: MKPKMKYSTNKISTAKWKNTASKALCFKLGKSQQKAKEVCPMYFMKLRSGLMIKKEACYFRRETTKRPSLKTGRKHKRHLVLAACQQQSTVECFAFGISGVQKYTRALHDSSITGISPITEYLASLSTYNDQSITFALEDESYEIYVEDLKKDEKKDKVLLSYYESQHPSNESGDGVDGKMLMVTLSPTKDFWLHANNKEHSVELHKCEKPLPDQAFFVLHNMHSNCVSFECKTDPGVFIGVKDNHLALIKVDSSENLCTENILFKLSET
Q: B2 was tested. Which “induction of ER stress” value (MIN6N8 murine β-cells) did it give?
A: potent inducers of ER stress

B3: IL-10: cytokine that inhibits ER stress (protein, UniProt P22301 19-178, looked up)
Interleukin-10: SPGQGTQSENSCTHFPGNLPNMLRDLRDAFSRVKTFFQMKDQLDNLLLKESLLEDFKGYLGCQALSEMIQFYLEEVMPQAENQDPDIKAHVNSLGENLKTLRLRLRRCHRFLPCENKSKAVEQVKNAFNKLQEKGIYKAMSEFDIFINYIEAYMTMKIRN
Q: With B3 as the molecule, how does the “inhibition of ER stress initiated by cytokines or tunicamycin” value (MIN6N8 murine β-cells; pair-wise combinations of cytokines) read?
A: inhibit ER stress

B4: IL-23: ER stress-inducing cytokine (protein, UniProt Q9NPF7 20-189; P29460 23-328, looked up)
Interleukin-23 subunit alpha: RAVPGGSSPAWTQCQQLSQKLCTLAWSAHPLVGHMDLREEGDEETTNDVPHIQCGDGCDPQGLRDNSQFCLQRIHQGLIFYEKLLGSDIFTGEPSLLPDSPVGQLHASLLGLSQLLQPEGHHWETQQIPSLSPSQPWQRLLLRFKILRSLQAFVAVAARVFAHGAATLSP
Interleukin-12 subunit beta: IWELKKDVYVVELDWYPDAPGEMVVLTCDTPEEDGITWTLDQSSEVLGSGKTLTIQVKEFGDAGQYTCHKGGEVLSHSLLLLHKKEDGIWSTDILKDQKEPKNKTFLRCEAKNYSGRFTCWWLTTISTDLTFSVKSSRGSSDPQGVTCGAATLSAERVRGDNKEYEYSVECQEDSACPAAEESLPIEVMVDAVHKLKYENYTSSFFIRDIIKPDPPKNLQLKPLKNSRQVEVSWEYPDTWSTPHSYFSLTFCVQVQGKSKREKKDRVFTDKTSATVICRKNASISVRAQDRYYSSSWSEWASVPCS
Q: B4 was tested. Which “induction of ER stress” value (MIN6N8 murine β-cells) did it give?
A: potent inducers of ER stress

B5: IFN-γ: ER stress-inducing cytokine (protein, UniProt P01579 24-161, looked up)
Interferon gamma: QDPYVKEAENLKKYFNAGHSDVADNGTLFLGILKNWKEESDRKIMQSQIVSFYFKLFKNFKDDQSIQKSVETIKEDMNVKFFNSNKKKRDDFEKLTNYSVTDLNVQRKAIHELIQVMAELSPAAKTGKRKRSQMLFRG
Q: How did the “induction of ER stress” value (MIN6N8 murine β-cells) turn out when B5 was run?
A: lower stress response

B6: IL-24: ER stress-inducing cytokine (protein, UniProt Q13007 52-206, looked up)
Interleukin-24: QEFHFGPCQVKGVVPQKLWEAFWAVKDTMQAQDNITSARLLQQEVLQNVSDAESCYLVHTLLEFYLKTVFKNYHNRTVEVRTLKSFSTLANNFVLIVSQLQPSQENEMFSIRDSAHRRFLLFRRAFKQLDVEAALTKALGEVDILLTWMQKFYKL
Q: How did the “induction of ER stress” value (MIN6N8 murine β-cells) turn out when B6 was run?
A: potent inducers of ER stress
